The values that follow come from ChEMBL document CHEMBL1156842, “Discovery of 5-aryloxy-2,4-thiazolidinediones as potent GPR40 agonists” (Bioorg Med Chem Lett, 2010).

Calls of active or inactive are those of the source. The rule behind the calls is not given here.

Test system in the first data set: not listed separately
Briefly: Tmax in mouse at 2 mg/kg. The data set is classed as ADME, organism-based. More on the design: dose 2 mg/kg. As to conditions: in vivo.
As for `Cc1cc(Oc2ncc(C(F)(F)F)cc2Cl)ccc1CC1SC(=O)NC1=O` (stereo not drawn), the Tmax came out at 3 h.

Test system in another data set: not listed separately
Briefly: Cmax in mouse at 2 mg/kg. It is filed as ADME, organism-based. The conditions noted are these: in vivo. More on the design: dose 2 mg/kg.
In turn, `Cc1cc(Oc2ncc(C(F)(F)F)cc2Cl)ccc1CC1SC(=O)NC1=O` (stereo not drawn) came in with a maximum concentration (Cmax) of 1.4 µM.

Test system in a further data set: not listed separately
Briefly: Oral bioavailability in mouse at 2 mg/kg. It is filed as ADME, organism-based. The conditions noted are these: in vivo.
As to `Cc1cc(Oc2ncc(C(F)(F)F)cc2Cl)ccc1CC1SC(=O)NC1=O` (stereo not drawn), the bioavailability came out at 100%.

The target in a further data set is T1, Free fatty acid receptor 1 (Homo sapiens, UniProt O14842). Put plainly: Agonist activity at human GPR40 at 40 uM by FLIPR assay in presence of 1% BSA.
T1 sequence (O14842 whole entry): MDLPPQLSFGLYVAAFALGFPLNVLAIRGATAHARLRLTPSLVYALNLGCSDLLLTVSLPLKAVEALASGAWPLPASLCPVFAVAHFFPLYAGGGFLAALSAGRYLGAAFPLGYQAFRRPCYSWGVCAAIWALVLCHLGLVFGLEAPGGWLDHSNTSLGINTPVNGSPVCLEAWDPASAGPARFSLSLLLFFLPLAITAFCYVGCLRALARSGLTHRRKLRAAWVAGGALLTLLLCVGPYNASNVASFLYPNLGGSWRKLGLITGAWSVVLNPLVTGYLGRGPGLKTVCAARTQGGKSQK
Conditions: not given
It is filed as functional.
For the molecule `O=C1CCC(Cc2ccc(Oc3ccc(Cl)cc3Cl)cc2)C(=O)N1` (stereo not drawn), the Activity is 6%.
As for `CN1C(=O)NC(=O)C1Cc1ccc(Oc2ccc(Cl)cc2Cl)cc1` (stereo not drawn), the Activity was found to be 2%.
The same measure, in the same setting: to `O=C1COC(Cc2ccc(Oc3ccc(Cl)cc3Cl)cc2)C(=O)N1` (stereo not drawn) belongs 23%.
Still for that read-out and setting: to `O=C1NC(=O)C(Cc2ccc(Oc3ccc(C(F)(F)F)cc3Cl)c3ccccc23)S1` (stereo not drawn) belongs 46%.

Test system in another data set: not listed separately
Put plainly: Half life in mouse at 2 mg/kg. The arrangement: dose 2 mg/kg. As to conditions: in vivo. The data set is classed as ADME, organism-based.
In turn, `Cc1cc(Oc2ncc(C(F)(F)F)cc2Cl)ccc1CC1SC(=O)NC1=O` (stereo not drawn) gave a half-life of 5.1 h.

In a further data set the test system is Mus musculus. Put plainly: Reduction in glucose excursion in GPR40-/- lean mouse assessed as inhibition of glucose AUC at 30 mg/kg, po pretreated 1 hr before dextrose challenge by intraperitoneal glucose tolerance test. The data set is classed as functional, organism-based. More on the design: dose 30 mg/kg.
Conditions: not given
Take `Cc1cc(Oc2ncc(C(F)(F)F)cc2Cl)ccc1CC1SC(=O)NC1=O` (stereo not drawn): the result was inactive.

Another data set has as its system Mus musculus. Put plainly: Reduction in glucose excursion in lean mouse at 3 to 100 mg/kg, po pretreated 1 hr before dextrose challenge by intraperitoneal glucose tolerance test.
Conditions: not given
In the case of `Cc1cc(Oc2ncc(C(F)(F)F)cc2Cl)ccc1CC1SC(=O)NC1=O` (stereo not drawn), the outcome was Active.

Test system in a further data set: not listed separately
Put plainly: Clearance in mouse at 2 mg/kg. It is filed as ADME, organism-based. The arrangement: dose 2 mg/kg. As to conditions: in vivo.
In turn, `Cc1cc(Oc2ncc(C(F)(F)F)cc2Cl)ccc1CC1SC(=O)NC1=O` (stereo not drawn) yielded a clearance of 1.9 mL/min/kg.

Test system in another data set: not listed separately
Briefly: Plasma concentration in lean mouse at 30 mg/kg, po pretreated 1 hr before dextrose challenge measured after 2 hrs. The data set is classed as ADME, organism-based.
Conditions: not given
More on the design: dose 30 mg/kg, route oral.
On to `Cc1cc(Oc2ncc(C(F)(F)F)cc2Cl)ccc1CC1SC(=O)NC1=O` (stereo not drawn), for which the concentration at 2 h was 37 µM.

For the next data set, the system named is Mus musculus. Briefly: Reduction in glucose excursion in lean mouse assessed as inhibition of glucose AUC at 30 mg/kg, po pretreated 1 hr before dextrose challenge by intraperitoneal glucose tolerance test. The data set is classed as functional. More on the design: scale not given: the % may be the effect or the level left.
Conditions: not given
For `Cc1cc(Oc2ncc(C(F)(F)F)cc2Cl)ccc1CC1SC(=O)NC1=O` (stereo not drawn), the Activity came out at 73%.

A further data set deals with T1, Free fatty acid receptor 1. Put plainly: Agonist activity at human GPR40 by FLIPR assay in presence of 1% BSA. The data set is classed as functional. As to conditions: read-out: EC50.
On to `Cc1cc(Oc2ncc(C(F)(F)F)cc2Cl)cc(C)c1CC1SC(=O)NC1=O` (stereo not drawn), for which the EC50 stood at 5450 nM.
Regarding `Cc1ccc(Oc2ccc(CC3SC(=O)NC3=O)cc2)cc1` (stereo not drawn), the EC50 was 547 nM.
Same read-out and setting: then `O=C1NC(=O)C(Cc2ccc(Oc3ccc(Cl)cn3)cc2)S1` (stereo not drawn), with 1870 nM; and `O=C1NC(=O)C(Cc2ccc(Oc3ccccc3Cl)cc2)S1` (stereo not drawn), with 1190 nM; and `O=C1NC(=O)C(Cc2ccc(Oc3ccc(Cl)cc3Cl)cc2)S1` (stereo not drawn), with 101 nM.
Same read-out and setting: then `O=C1NC(=O)C(Cc2ccc(Oc3ccc(F)cc3)cc2)S1` (stereo not drawn), with 480 nM; and `Cc1ccnc(Oc2ccc(CC3SC(=O)NC3=O)cc2)c1` (stereo not drawn), with 4280 nM.
The same measure, in the same setting: to `O=C1NC(=O)C(Cc2ccc(Oc3ccc(C(F)(F)F)cc3Cl)cc2)S1` (stereo not drawn) belongs 78 nM; to `O=C1NC(=O)C(Cc2ccc(Oc3ccc(Cl)cc3)cc2)S1` (stereo not drawn), 240 nM.
Regarding `O=C1NC(=O)C(Cc2ccc(Oc3cccc(Cl)c3)cc2)S1` (stereo not drawn), the EC50 was 318 nM.
For `O=C1NC(=O)C(Cc2ccc(CCc3ccccc3)cc2)S1` (stereo not drawn), the EC50 is 1080 nM.
As for `Cc1cccc(Oc2ccc(CC3SC(=O)NC3=O)cc2)c1C` (stereo not drawn), the EC50 was found to be 334 nM.
Regarding `Cc1cc(Oc2ccc(CC3SC(=O)NC3=O)cc2)nc(C(F)(F)F)c1` (stereo not drawn), the EC50 was 688 nM.
Same read-out and setting: to `O=C1NC(=O)C(Cc2ccc(Oc3cc(Cl)cc(Cl)c3)cc2)S1` (stereo not drawn) belongs 207 nM; to `O=C1NC(=O)C(Cc2ccc(Oc3ccc(C(F)(F)F)cn3)cc2)S1` (stereo not drawn), 558 nM.
On the same count and under the same terms, then `O=C1NC(=O)C(Cc2ccccc2Oc2ccccc2)S1` (stereo not drawn), with 11300 nM; and `O=C1NC(=O)C(Cc2ccc(Oc3ccc(Cl)cc3Cl)cc2)O1` (stereo not drawn), with 4020 nM; and `O=C1NC(=O)C(Cc2ccc(-c3ccccc3)cc2)S1` (stereo not drawn), with 2220 nM.
As to `O=C1NC(=O)C(Cc2ccc(Oc3ccc(Cl)cc3Cl)cc2C(F)(F)F)S1` (stereo not drawn), the EC50 was found to be 88 nM.
For `O=C1NC(=O)C(Cc2ccc(Oc3ncc(C(F)(F)F)cc3Cl)cc2)S1` (stereo not drawn), the EC50 worked out at 69 nM.
With `Cc1cccc(Oc2ccc(CC3SC(=O)NC3=O)cc2)n1` (stereo not drawn), the EC50 turned out to be 2620 nM.
The same measure, in the same setting: to `Cc1cc(C(F)(F)F)cc(Oc2ccc(CC3SC(=O)NC3=O)cc2)n1` (stereo not drawn) belongs 218 nM.
On the same count and under the same terms, then `Cc1cc(C)cc(Oc2ccc(CC3SC(=O)NC3=O)cc2)c1` (stereo not drawn), with 96 nM; and `O=C1NC(=O)C(Cc2ccc(Oc3cc(C(F)(F)F)ccn3)cc2)S1` (stereo not drawn), with 237 nM.
The same measure, in the same setting: to `O=C1NC(=O)C(Cc2ccc(Oc3ccccc3)cc2)S1` (stereo not drawn) belongs 307 nM; to `O=C1CC(Cc2ccc(Oc3ccc(Cl)cc3Cl)cc2)C(=O)N1` (stereo not drawn), 6450 nM.
As to `Cc1ccccc1Oc1ccc(CC2SC(=O)NC2=O)cc1` (stereo not drawn), the EC50 came out at 124 nM.
Same read-out and setting: to `O=C1NC(=O)C(Cc2ccc(/C=C/c3ccccc3)cc2)S1` (stereo not drawn) belongs 2090 nM.
On the same count and under the same terms, then `Cc1ccc(Oc2ccc(CC3SC(=O)NC3=O)cc2)c(C)c1` (stereo not drawn), with 121 nM.
Same read-out and setting: to `Cc1ccc(Oc2ccc(CC3SC(=O)NC3=O)cc2)nc1` (stereo not drawn) belongs 4470 nM.
For `O=C1NC(=O)C(Cc2ccc(Oc3cccc4ccccc34)cc2)S1` (stereo not drawn), the EC50 is 135 nM.
Still for that read-out and setting: then `O=C1NC(=O)C(Cc2ccc(Oc3cccc(C(F)(F)F)n3)cc2)S1` (stereo not drawn), with 1630 nM; and `O=C1NC(=O)C(Cc2ccc(C(=O)c3ccccc3)cc2)S1` (stereo not drawn), with 5300 nM; and `Cc1cc(Oc2ncc(C(F)(F)F)cc2Cl)ccc1CC1SC(=O)NC1=O` (stereo not drawn), with 10 nM.
The same measure, in the same setting: to `O=C1NC(=O)C(Cc2ccc(Oc3ncc(Cl)cc3Cl)cc2Cl)S1` (stereo not drawn) belongs 63 nM; to `COc1cc(Oc2ncc(C(F)(F)F)cc2Cl)ccc1CC1SC(=O)NC1=O` (stereo not drawn), 13800 nM.
The same measure, in the same setting: then `Cc1cc(Oc2ccc(C(F)(F)F)cc2Cl)ccc1CC1SC(=O)NC1=O` (stereo not drawn), with 18 nM; and `Cc1ccc(C)c(Oc2ccc(CC3SC(=O)NC3=O)cc2)c1` (stereo not drawn), with 238 nM.
Take `O=C1NC(=O)C(Cc2cccc(Oc3ccccc3)c2)S1` (stereo not drawn): the EC50 is 4700 nM.
`O=C1NC(=O)C(Cc2ccc(Sc3ccccc3)cc2)S1` (stereo not drawn): the EC50 was found to be 5060 nM.
Same read-out and setting: then `O=C1NC(=O)C(Cc2ccc(Oc3ncc(Cl)cc3Cl)cc2)S1` (stereo not drawn), with 90 nM.
For the molecule `O=C1NC(=O)C(Cc2ccc(OCc3ccccc3)cc2)S1` (stereo not drawn), the EC50 turned out to be 6180 nM.
Same read-out and setting: then `Cc1cccnc1Oc1ccc(CC2SC(=O)NC2=O)cc1` (stereo not drawn), with 1090 nM.
Regarding `O=C1NC(=O)C(Cc2ccc(Cc3ccccc3)cc2)S1` (stereo not drawn), the EC50 came out at 9280 nM.
For `O=C1NC(=O)C(Cc2ccc(Oc3ncc(C(F)(F)F)cc3Cl)cc2Cl)S1` (stereo not drawn), the EC50 was 26 nM.
With `O=C1NC(=O)C(Cc2ccc(Oc3ncccc3C(F)(F)F)cc2)S1` (stereo not drawn), the EC50 came to 2290 nM.
In the case of `Cc1cccc(Oc2ccc(CC3SC(=O)NC3=O)cc2)c1` (stereo not drawn), the EC50 was 203 nM.
For `COc1cc(Oc2ccc(Cl)cc2Cl)ccc1CC1SC(=O)NC1=O` (stereo not drawn), the EC50 amounted to 1410 nM.
Take `O=C1NC(=O)C(Cc2ccc(Oc3ncc(C(F)(F)F)cc3Cl)c3ccccc23)S1` (stereo not drawn): the EC50 was found to be 23600 nM.
The same measure, in the same setting: then `Cc1cc(Oc2ccc(CC3SC(=O)NC3=O)cc2)cc(C)c1C#N` (stereo not drawn), with 120 nM; and `Cc1ccc(Oc2ccc(CC3SC(=O)NC3=O)cc2)cc1C` (stereo not drawn), with 727 nM; and `O=C1NC(=O)C(Cc2ccc(Oc3cc4ccccc4cn3)cc2)S1` (stereo not drawn), with 144 nM.

Staying with this data set, now noted: read-out: pEC50 (converted).
With `Cc1nc(-c2ccc(C(F)(F)F)cc2)sc1CNc1ccc(C2CC2C(=O)O)cc1` (stereo not drawn), the EC50 was 10 nM.
Turning to `O=C(O)CCc1ccc(NCc2cccc(Oc3ccccc3)c2)cc1` [GW9508], the EC50 was 100 nM.

Another data set deals with Mus musculus. Put plainly: Reduction in glucose excursion in po dosed lean mouse pretreated 1 hr before dextrose challenge by intraperitoneal glucose tolerance test. It is filed as functional, organism-based.
Conditions: not given
In the case of `Cc1cc(Oc2ncc(C(F)(F)F)cc2Cl)ccc1CC1SC(=O)NC1=O` (stereo not drawn), the Activity result was “Dose-dependent effect”.

As usually defined, the Tmax is the time from dosing to the highest level. A word on the Cmax: it is the maximum level reached in the sampled fluid or tissue. Broadly, the bioavailability is dose-corrected exposure relative to a reference, in per cent. Usually half-life stands for how long it takes for the measured level to halve. Usually clearance stands for the rate of elimination divided by the concentration.
